Data on six molecules can be found in ChEMBL document CHEMBL1154147, “Antityrosinase and antioxidant effects of ent-kaurane diterpenes from leaves of Broussonetia papyrifera” (J Nat Prod, 2008).

In experiment [1] the target is T1, Tyrosinase (Agaricus bisporus, UniProt O42713).
T1 sequence (O42713 whole entry): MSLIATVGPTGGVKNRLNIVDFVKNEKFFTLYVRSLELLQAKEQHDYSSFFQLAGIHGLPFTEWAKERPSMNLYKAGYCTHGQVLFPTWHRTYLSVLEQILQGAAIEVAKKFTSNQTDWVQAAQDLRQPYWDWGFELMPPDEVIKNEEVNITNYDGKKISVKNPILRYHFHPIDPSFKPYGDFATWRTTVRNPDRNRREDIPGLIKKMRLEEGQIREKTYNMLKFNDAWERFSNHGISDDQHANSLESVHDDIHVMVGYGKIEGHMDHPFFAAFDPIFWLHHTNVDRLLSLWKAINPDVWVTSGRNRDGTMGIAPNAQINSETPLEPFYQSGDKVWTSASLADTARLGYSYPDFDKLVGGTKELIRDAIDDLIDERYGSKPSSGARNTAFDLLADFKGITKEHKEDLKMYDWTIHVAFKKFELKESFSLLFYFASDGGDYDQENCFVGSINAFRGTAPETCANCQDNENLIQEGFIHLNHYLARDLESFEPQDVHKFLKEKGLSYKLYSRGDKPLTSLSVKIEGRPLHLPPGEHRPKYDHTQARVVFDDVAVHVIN
Description: (§1) Inhibition of mushroom tyrosinase after 90 mins

In experiment [2] the target is T1, Tyrosinase. The source holds these as a separate data set.
Description: (§2) Inhibition of mushroom tyrosinase after 30 mins
In experiment [3] the test system is Radical scavenging activity.
Description: Antioxidant activity assessed as DPPH free radical scavenging activity after 30 mins
Experiment [4] addresses T1, Tyrosinase. The source holds these as a separate data set.
Description: as §1
Experiment [5] addresses T1, Tyrosinase. This is another data set of the same source.
Description: as §2

SMILES strings stand for the structures.

As to `O=c1cc(-c2ccc(O)cc2)oc2c([C@@H]3O[C@H](CO)[C@@H](O)[C@H](O)[C@H]3O)c(O)cc(O)c12` [VITEXIN], the IC50 result (against Tyrosinase [1]; on Tyrosinase [2]; in experiment [3]) was “Not Active” throughout.

`COc1ccc(O)c(C(C)(C)C)c1.COc1ccc(O)cc1C(C)(C)C` [BUTYLATED HYDROXYANISOLE]: the IC50 in experiment [3] amounted to 79.2 µM.

On to `CC1(C)OC[C@]2(C[C@]34C[C@@H]2CC[C@H]3[C@]2(C)CCCC(C)(C)[C@H]2C(=O)[C@H]4O)O1` [BROUSSONETONE C], for which the values for the IC50 (at Tyrosinase [4]; at Tyrosinase [5]; in experiment [3]) were 323 µM, 353 µM and “Not Active”, respectively.

In the case of `CC1(C)CCC[C@]2(C)[C@@H]1C(=O)[C@@H](O)[C@@]13C[C@H](CC[C@@H]21)[C@@](O)(CO)C3` [BROUSSONETONE A], the IC50 against Tyrosinase [4] is 322 µM; at Tyrosinase [5] it was 336 µM; in experiment [3] it was “Not Active”.

With `O=c1cc(-c2ccc(O)cc2)oc2cc(O)cc(O)c12` [APIGENIN], the figures for the concentration for half-maximal inhibition (IC50) (on Tyrosinase [4]; against Tyrosinase [5]; in experiment [3]) were 305 µM, 305 µM and “Not Active”, respectively.

Take `CC1(C)CCC[C@]2(C)[C@@H]1C(=O)[C@H](O)[C@@]13C[C@H](CC[C@@H]21)[C@@](O)(CO)C3` [BROUSSONETONE B]: the 50% inhibitory concentration (IC50) at Tyrosinase [4] was 317 µM; against Tyrosinase [2], “Not Active”; in experiment [3], “Not Active”.
